Earlier results in patent publication US10463045B2, “Agrochemical composition” (Nippon Soda Co., Ltd., priority 2015, dated 2019).
≈ marks a conversion by molar mass, not a printed value. Like-named read-outs stand apart in the source and are kept apart here.

Compound: N#CCNC(=O)c1cnccc1C(F)(F)F [flonicamid]
- solubility in water (20° C.): 5,200 mg/l

Compound: 5-butyl-2-dimethylamino-6-methylpyridin-4-ol [dimethirimol]
- solubility in water (25° C.): 1,200 mg/l

Compound: CNC(=O)ON=C(C)SC [methomyl, S-methyl-N-(methylcarbamoyloxy) thioacetimidate]
- solubility in water (20° C., pH 7): 46,000 mg/l

Compound: CC(C1CC1)C(O)(Cn1cncn1)c1ccc(Cl)cc1 (stereo not drawn) [cyproconazole, 2-(4-chlorophenyl)-3-cyclopropyl-1-(1H-1,2,4-triazol-1-yl) butan-2-ol]
- solubility in water (pH 6.9): 100 mg/L (≈ 343 µM)

Compound: CN(CC[C@H](N)CC(=O)N[C@H]1C=C[C@H](n2ccc(N)nc2=O)O[C@@H]1C(=O)O)C(=N)N [blasticidin S, 1-(4-amino-1,2-dihydro-2-oxopyrimidin-1-yl)-4-[(S)-3-amino-5-(1-methyl-guanidino)valeramido]-1,2,3,4,-tetradioxy-β-D-erythrohexy-2-enopyranuronic acid]
- solubility in water (20° C.): 30,000 mg/l

Compound: ClC=CCCl [D-D, 1,3-dichloropropene]
- solubility in water (E form, 20° C.): 2,520 mg/l
- solubility in water (Z form, 20° C.): 2,450 mg/l

Compound: CC(C)N1C(=O)c2ccccc2NS1(=O)=O [bentazon, 3-isopropyl-1H-2,1,3-benzothiadiazin-4(3H)-one-2,2-dioxide]
- solubility in water (20° C.): 570 mg/L (≈ 2370 µM)

Compound: CN1CSC(=S)N(C)C1 [dazomet, 3,5-dimethyl-tetrahydro-2H-1,3,5-thiadiazine-2-thione]
- solubility in water (20° C.): 3,500 mg/l
